Molecules are shown by their SMILES.

A short description of experiment [1]: Reversibility of metal complexation upon addition of EDTA or EGTA. The note with it: 50 equivalents. The method, then: FIG. 9: Reversibility of p-H8THPPA and m-H8TPPA metal complexation. • Fluorescence of metal cation pretreated p-H8THPPA or m-H8TPPA solutions upon addition of 50 equivalents of EDTA or EGTA (⋅⋅Exc/Em.416 nm/650 nm). Data are means±S.E.M. of n=3 independent experiments. Statistically significant differences from buffer incubation (***p<0.001; two-way ANOVA/ Tukey post hoc test) or from metal cation treatment (##p<0.01; ###p<0.001; two-way ANOVA/Tukey post hoc test) are indicated.
(§1) Absorption spectra were recorded with a Tecan Infinite M200 Reader (Tecan Austria GmbH, Grödig/Salzburg, Switzerland) from 350 to 500 nm. The same device was used in fluorescence mode to measure fluorescence excitation ([…]; ⋅⋅Em. 650 nm) and fluorescence emission (550-850 nm; ⋅⋅Exc. 415 nm) spectra. 3D scanning was performed on a Spark® multimode microplate reader (Tecan Austria GmbH, Grodig/Salzburg, Switzerland) from 350 to 450 nm (Exc.) and 555 to 850 nm (Em.) with a 5 nm step size, excitation and emission bandwidths of 5 nm, and a detector gain of 100. A typical reaction mix was made by combining equal volumes of 20 μM phosphonate porphyrins diluted in assay-buffer (50 mM HEPES in bidistilled water adjusted to […] with sodium hydroxide solution; depleted of multivalent cations with Chelex® 100 Resin pretreatment^51) and a double-concentrated metal cation solution. Following 30 min incubations at 37° C. absorption or fluorescence measurements were done. For redox conversion tests the CuSO4 solutions were pretreated with 500 μM of L-ascorbic acid before admixing into the phosphonate porphyrin dilutions. To evaluate the effect of metal chelators, the metal cation-treated incubation mixtures were posttreated with 50 equivalents of EDTA or EGTA for 15 min before fluorescence emission readout.

Experiment [2] can be described thus: Effect of Cu-redox conversion on fluorescence. Conditions: 10 μM CuSO4 +/- 500 μM L-ascorbic acid. How it is done: FIG. 10: Effect of Cu-redox conversion on p-H8THPPA and m-H8TPPA fluorescence properties • 10 μM CuSO4 solutions pretreated +/−500 μM of l-ascorbic acid (15 min) were mixed with p-H8-TPPA or m-H8TPPA followed by detection of fluorescence emission (⋅⋅Exc/Em.416 nm/650 nm). Data are means+S.E.M. of n=3 independent experiments. Statistically significant differences from control ***p<0.001; two-way ANOVA/Tukey post hoc test) or from Cu^2+ alone (#p<0.05; two-way ANOVA/Tukey post hoc test) are indicated.
Absorption spectra were recorded with a Tecan Infinite M200 Reader (Tecan Austria GmbH, Grödig/Salzburg, Switzerland) from 350 to 500 nm. The same device was used in fluorescence mode to measure fluorescence excitation ([…]; ⋅⋅Em. 650 nm) and fluorescence emission (550-850 nm; ⋅⋅Exc. 415 nm) spectra. 3D scanning was performed on a Spark® multimode microplate reader (Tecan Austria GmbH, Grodig/Salzburg, Switzerland) from 350 to 450 nm (Exc.) and 555 to 850 nm (Em.) with a 5 nm step size, excitation and emission bandwidths of 5 nm, and a detector gain of 100. […] Following 30 min incubations at 37° C. absorption or fluorescence measurements were done. […] To evaluate the effect of metal chelators, the metal cation-treated incubation mixtures were posttreated with 50 equivalents of EDTA or EGTA for 15 min before fluorescence emission readout.

In experiment [3] the test system is Caco-2 cells. In words: Live-cell sensing of metal uptake into Caco-2 enterocytes. The format is cell-based, human. The note with it: for intracellular probe fluorescence upon extracellular FeSO4: 50 μM FeSO4, Caco-2 cells; for intracellular probe fluorescence upon Cu-exposure / intracellular probe response to incoming Cd^2+, Cu^2+, Hg^2+, Mn^2+, Pb^2+ and Zn^2+: 50 μM, Caco-2 cells. How it is done: FIG. 11: Live-cell sensing of metal uptake into Caco-2 enterocytes with p-H8THPPA and m-H8TPPA. • Caco-2 cells were loaded with p-H8THPPA or m-H8TPPA and the fluorescence recorded in 3 min intervals (⋅⋅Exc/Em.416 nm/650 nm). Fifteen minutes after the start of the experiment (arrow), metal cation solutions (final concentration 50 μM) or buffer (control) were added and the fluorescence measurement continued. Data are means±S.E.M. of n=3 independent experiments.
FIG. 12 Summary of cellular p-H8TPPA and m-H8TPPA metal responsiveness. • Data were taken from the last fluorescence readout shown in FIG. 11. Data are means+S.E.M. of n=3 independent experiments. Significant differences from buffer incubation ***p<0.001; **p<0.01; *p<0.05; one-way ANOVA/Dunnett's multiple comparison test.
The human intestinal cell line Caco-2 (European Collection of Cell Cultures, Porton Down, UK) were routinely cultured at 37° C., 5% CO2 and humidified atmosphere in Dulbecco's Modified Eagles Medium (DMEM), containing 10% fetal calf serum (FCS) 100 U/mL penicillin and 100 μg/ml streptomycin. For cellular phosphonate porphyrins experiments, Caco-2 cells were transferred into 96 wells (initially seeding 5000 cells per well) and cultured for 14 days for differentiation into an enterocyte-like monolayer^53,54. For phosphonate labeling, differentiated cells were treated with either m-H8TPPA, p-H8TPPA or p-H8TPPA-iPr8 in a HEPES-based incubation buffer (10 mM HEPES, pH 7.35, 120 mM NaCl, 5.4 mM KCl, 5 mM glucose, 1.3 mM CaCl2, 1 mM MgCl2, 1 mM NaH2PO4, 0.3% bovine serum albumin) for […] Excess fluorescent dye was removed by multiple washing steps before fluorescence emission scanning using 416 nm excitation (Tecan Infinite M200 reader; Tecan, Grödig/Salzburg, […]). To analyze metal responsiveness of the intracellular phosphonate porphyrins, cells were post-treated with 50 μM of different metal solutions at 37° C. in an albumin-free incubation buffer in a time-course experiment.

A short description of experiment [4]: Fluorescence titration with metal cations. The note with it: for half maximal effective concentration for fluorescence silencing, copper versus other metal cations: 10 μM probe, Exc/Em 416 nm/650 nm; for fluorescence upon treatment with Cu^2+: 40 μM Cu^2+ (CuSO4), probe 10 μM. The method, then: FIG. 6: Fluorescence titration of p-H8THPPA and m-H8TPPA with metal cations. • 10 μM p-H8TPPA or m-H8TPPA solutions were treated with increasing quantities of metal cations followed by detection of fluorescence emission (⋅Exc/Em.416 nm/650 nm). Data are means±S.E.M. of at least n=3 independent experiments. Sigmoidal dose—response curves were fitted by non-linear regression and the resulting EC50 values are indicated.
FIG. 7: Fluorescence titration of p-H8THPPA and m-H8TPPA upon addition of metal cations • 10 μM p-H8TPPA or […] were treated with increasing quantities of metal cations followed by detection of fluorescence emission (⋅Exe/Em.416 nm/650 nm). Data are means+S.E.M. of at least n=3 independent experiments. Sigmoidal dose—response curves were fitted by non-linear regression and the resulting EC50 values are indicated.
as §1

As for `O=P(O)(O)c1cccc(-c2c3nc(c(-c4cccc(P(=O)(O)O)c4)c4ccc([nH]4)c(-c4cccc(P(=O)(O)O)c4)c4nc(c(-c5cccc(P(=O)(O)O)c5)c5ccc2[nH]5)C=C4)C=C3)c1` [m-H8TPPA, 5,10,15,20-tetrakis [m-phenylphosphonic acid] porphyrin], in experiment [1], the “response of Zn^2+ and Hg^2+ quenching to metal chelator posttreatment” value is “quenching was reversed”; the “response of copper-induced fluorescence decrease to metal chelator posttreatment” value was “almost non-responsive”. For the same compound, the “fluorescence response to Cu^2+ and Cu^+” value in experiment [2] is given as “Quenching”. Besides, in experiment [3], the “intracellular probe fluorescence upon extracellular FeSO4” value is recorded as “remained stable”; the “intracellular probe fluorescence upon Cu-exposure” value is “strong and rapid decline”; the “intracellular probe response to incoming Cd^2+, Cu^2+, Hg^2+, Mn^2+, Pb^2+ and Zn^2+” value is “fluorescence silencing”. In experiment [4], the “half maximal effective concentration for fluorescence silencing, copper versus other metal cations” value is recorded as “considerably lower for copper” and the “fluorescence upon treatment with Cu^2+” value is recorded as “almost complete abrogation”.
With `O=P(O)(O)c1ccc(-c2c3nc(c(-c4ccc(P(=O)(O)O)cc4)c4ccc([nH]4)c(-c4ccc(P(=O)(O)O)cc4)c4nc(c(-c5ccc(P(=O)(O)O)cc5)c5ccc2[nH]5)C=C4)C=C3)cc1` [p-H8TPPA, 5,10,15,20-Tetrakis [p-phenylphosphonic acid] porphyrin], in experiment [1], the “response of Zn^2+ and Hg^2+ quenching to metal chelator posttreatment” value is given as “quenching was reversed”; the “response of copper-induced fluorescence decrease to metal chelator posttreatment” value was “almost non-responsive”. The “fluorescence response to Cu^2+ and Cu^+” value in experiment [2] was “Quenching”. In experiment [3], the “intracellular probe fluorescence upon extracellular FeSO4” value is “remained stable”; the “intracellular probe fluorescence upon Cu-exposure” value was “strong and rapid decline”; the “intracellular probe response to incoming Cd^2+, Cu^2+, Hg^2+, Mn^2+, Pb^2+ and Zn^2+” value is given as “fluorescence silencing”. In addition, in experiment [4], the “half maximal effective concentration for fluorescence silencing, copper versus other metal cations” value is listed as “considerably lower for copper” and the “fluorescence upon treatment with Cu^2+” value is “almost complete abrogation”.

The values are drawn from patent US20240142458A1, “FLUORESCENT PROBES FOR QUANTIFICATION OF FREE COPPER” (TECHNISCHE UNIVERSITÄT BERLIN, priority 2020, published 2024).
